The source of these data is PubChem BioAssay AID1259407 (Chemical Carcinogenesis Research Information System (CCRIS), 2018).

Each structure is given as a SMILES string. Calls of active or inactive are those of the source. The rule behind the calls is not given here.

For this data set, the system named is CCRIS mutagenicity, Ames/micronucleus/aberration tests. Put plainly: CCRIS mutagenicity studies.
Setting [1] is: Test System: AMES SALMONELLA TYPHIMURIUM, Strain/Indicator: TA98, Metabolic Activation: NONE, Method: STANDARD PLATE.
[2] abbreviates: Test System: AMES SALMONELLA TYPHIMURIUM, Strain/Indicator: TA98, Metabolic Activation: RAT, LIVER, S-9, AROCLOR 1254, Method: STANDARD PLATE.
Setting [3] is: Test System: AMES SALMONELLA TYPHIMURIUM, Strain/Indicator: TA100, Metabolic Activation: NONE, Method: STANDARD PLATE.
Where [4] appears, read: Test System: AMES SALMONELLA TYPHIMURIUM, Strain/Indicator: TA100, Metabolic Activation: RAT, LIVER, S-9, AROCLOR 1254, Method: STANDARD PLATE.

In the case of `CC(C)C[C@H]1C(=O)N2CCC[C@H]2[C@]2(O)O[C@](NC(=O)[C@@H]3C[C@@H]4c5cccc6[nH]cc(c56)C[C@H]4N(C)C3)(C(C)C)C(=O)N12`, the mutagenic call is “inactive; negative” under setting [1]; “inactive; negative” under setting [2]; “inactive; negative” under setting [3]; “inactive; negative” under setting [4]; “inactive; negative” (Test System: AMES SALMONELLA TYPHIMURIUM, Strain/Indicator: TA1535, Metabolic Activation: NONE, Method: STANDARD PLATE); “inactive; negative” (Test System: AMES SALMONELLA TYPHIMURIUM, Strain/Indicator: TA1535, Metabolic Activation: RAT, LIVER, S-9, AROCLOR 1254, Method: STANDARD PLATE). Also, the mutagenic call is, setting by setting: (Test System: AMES SALMONELLA TYPHIMURIUM, Strain/Indicator: TA1537, Metabolic Activation: NONE, Method: STANDARD PLATE) “inactive; negative”; (Test System: AMES SALMONELLA TYPHIMURIUM, Strain/Indicator: TA1537, Metabolic Activation: RAT, LIVER, S-9, AROCLOR 1254, Method: STANDARD PLATE) “inactive; negative”; (Test System: AMES SALMONELLA TYPHIMURIUM, Strain/Indicator: TA1538, Metabolic Activation: NONE, Method: STANDARD PLATE) “inactive; negative”; (Test System: AMES SALMONELLA TYPHIMURIUM, Strain/Indicator: TA1538, Metabolic Activation: RAT, LIVER, S-9, AROCLOR 1254, Method: STANDARD PLATE) “inactive; negative”; (Test System: MOUSE LYMPHOMA, Strain/Indicator: L5178Y (TK+/TK-), Metabolic Activation: NONE, Method: SUSPENSION/PLATE) “inactive; negative”; (Test System: MOUSE LYMPHOMA, Strain/Indicator: L5178Y (TK+/TK-), Metabolic Activation: RAT, LIVER, S-9, AROCLOR 1254, Method: SUSPENSION/PLATE) “inactive; negative”. For the same molecule, the mutagenic call (Test System: UDS RAT HEPATOCYTES, Strain/Indicator: THY INCORP, Metabolic Activation: NONE) was “inactive; negative”.
On to `O=c1[nH]cc(/C=C/Br)c(=O)[nH]1`, for which the mutagenic call reads like this: (Test System: CHINESE HAMSTER V-79, Strain/Indicator: V-79/8-AZAGUANINE, Metabolic Activation: NONE) “inactive; negative”; (Test System: UDS RODENT HEPATOCYTES, Strain/Indicator: THY INCORP, Metabolic Activation: NONE) “inactive; negative”.
As to `Clc1cc2ccccc2c2ccccc12`, the mutagenic call under setting [1] is “inactive; negative”, the mutagenic call under setting [2] is “active; positive”, the mutagenic call under setting [3] was “inactive; negative” and the mutagenic call under setting [4] is “inactive; negative”.
As to `FC(F)(Cl)Br`, the mutagenic call (Test System: AMES SALMONELLA TYPHIMURIUM, Strain/Indicator: TA98, Metabolic Activation: NONE, Method: DESICCATOR) is “inactive; negative”; the mutagenic call (Test System: AMES SALMONELLA TYPHIMURIUM, Strain/Indicator: TA100, Metabolic Activation: NONE, Method: DESICCATOR) was “inactive; negative”; the mutagenic call (Test System: AMES SALMONELLA TYPHIMURIUM, Strain/Indicator: TA100, Metabolic Activation: RAT, LIVER, S-9, AROCLOR 1254, Method: DESICCATOR) is “inactive; negative”; the mutagenic call (Test System: AMES SALMONELLA TYPHIMURIUM, Strain/Indicator: TA1535, Metabolic Activation: NONE, Method: DESICCATOR) was “active; positive”; the mutagenic call (Test System: AMES SALMONELLA TYPHIMURIUM, Strain/Indicator: TA1535, Metabolic Activation: RAT, LIVER, S-9, AROCLOR 1254, Method: DESICCATOR) was “active; positive”; the mutagenic call (Test System: AMES SALMONELLA TYPHIMURIUM, Strain/Indicator: TA1538, Metabolic Activation: RAT, LIVER, S-9, AROCLOR 1254, Method: DESICCATOR) was “inactive; negative”. Further, the mutagenic call runs as follows: (Test System: MOUSE LYMPHOMA, Strain/Indicator: L5178Y (TK+/TK-), Metabolic Activation: NONE, Method: DESICCATOR) “inactive; negative”; (Test System: MOUSE LYMPHOMA, Strain/Indicator: L5178Y (TK+/TK-), Metabolic Activation: S-9, Method: DESICCATOR) “inactive; negative”.
Regarding `O=[N+]([O-])c1cc2c(cc3ccc4cccc5ccc2c3c45)o1`, the mutagenic call is “active; positive” (Test System: AMES SALMONELLA TYPHIMURIUM, Strain/Indicator: TA98(NR), Metabolic Activation: NONE, Method: STANDARD PLATE); “active; positive” (Test System: AMES SALMONELLA TYPHIMURIUM, Strain/Indicator: TA98(NR), Metabolic Activation: RAT, LIVER, S-9, AROCLOR 1254, Method: STANDARD PLATE); “active; positive” under setting [1]; “active; positive” under setting [2].
With `O=C(O)c1ccc([N+](=O)[O-])cc1`, the mutagenic call by setting is: (Test System: AMES SALMONELLA TYPHIMURIUM, Strain/Indicator: TA98, Metabolic Activation: HAMSTER, LIVER, S-9, AROCLOR 1254 (10%), Method: PREINCUBATION) “inactive; negative”; under setting [1], “active; positive”; (Test System: AMES SALMONELLA TYPHIMURIUM, Strain/Indicator: TA98, Metabolic Activation: RAT, LIVER, S-9, AROCLOR 1254 (10%), Method: PREINCUBATION) “inactive; negative”; (Test System: AMES SALMONELLA TYPHIMURIUM, Strain/Indicator: TA98, Metabolic Activation: RAT, LIVER, S-9, KANECHLOR 500, Method: PREINCUBATION) “inactive; negative”; (Test System: AMES SALMONELLA TYPHIMURIUM, Strain/Indicator: TA100, Metabolic Activation: HAMSTER, LIVER, S-9, AROCLOR 1254 (10%), Method: PREINCUBATION) “active; positive”; (Test System: AMES SALMONELLA TYPHIMURIUM, Strain/Indicator: TA100, Metabolic Activation: HAMSTER, LIVER, S-9, AROCLOR 1254, FLAVIN MONONUCLEOTIDE, Method: PREINCUBATION) “active; positive”. Besides, the mutagenic call is “active; positive” (Test System: AMES SALMONELLA TYPHIMURIUM, Strain/Indicator: TA100, Metabolic Activation: HAMSTER, LIVER, S-9, AROCLOR 1254, Method: PREINCUBATION); “active; positive” (Test System: AMES SALMONELLA TYPHIMURIUM, Strain/Indicator: TA100, Metabolic Activation: RAT, LIVER, S-9, AROCLOR 1254 (10%), Method: PREINCUBATION); “active; positive” (Test System: AMES SALMONELLA TYPHIMURIUM, Strain/Indicator: TA100, Metabolic Activation: RAT, LIVER, S-9, AROCLOR 1254, FLAVIN MONONUCLEOTIDE, Method: PREINCUBATION); “inactive; negative” under setting [4]; “active; positive” (Test System: AMES SALMONELLA TYPHIMURIUM, Strain/Indicator: TA100, Metabolic Activation: RAT, LIVER, S-9, KANECHLOR 500, Method: PREINCUBATION); “inactive; negative” (Test System: AMES SALMONELLA TYPHIMURIUM, Strain/Indicator: TA1535, Metabolic Activation: HAMSTER, LIVER, S-9, AROCLOR 1254 (10%), Method: PREINCUBATION). The mutagenic call was “inactive; negative” (Test System: AMES SALMONELLA TYPHIMURIUM, Strain/Indicator: TA1535, Metabolic Activation: NONE, Method: PREINCUBATION); “inactive; negative” (Test System: AMES SALMONELLA TYPHIMURIUM, Strain/Indicator: TA1535, Metabolic Activation: RAT, LIVER, S-9, AROCLOR 1254 (10%), Method: PREINCUBATION); “inactive; negative” (Test System: AMES SALMONELLA TYPHIMURIUM, Strain/Indicator: TA1537, Metabolic Activation: HAMSTER, LIVER, S-9, AROCLOR 1254 (10%), Method: PREINCUBATION); “inactive; negative” (Test System: AMES SALMONELLA TYPHIMURIUM, Strain/Indicator: TA1537, Metabolic Activation: NONE, Method: PREINCUBATION); “inactive; negative” (Test System: AMES SALMONELLA TYPHIMURIUM, Strain/Indicator: TA1537, Metabolic Activation: RAT, LIVER, S-9, AROCLOR 1254 (10%), Method: PREINCUBATION); “active; positive” (Test System: AMES SALMONELLA TYPHIMURIUM, Strain/Indicator: TA1538, Metabolic Activation: NONE, Method: PREINCUBATION).
